Assay results reported in patent US20170088520A1, “DEUBIQUITINASE INHIBITORS” (PharmAkea, Inc., priority 2014, published 2017).
One block for each molecule: values may come before it.

Experiments:
Format in all cases: cell-based
[1] = target: T1, DUB activity in cells (NCI-H929, Z138, MM.1S, A375) (Homo sapiens, UniProt Q93008); experiment: HA-Ubiquitin-Vinylsulfone (HA-Ub-VS) cell labeling assay; conditions: compound tested at 5 μM; HA-Ub-VS labeling of USP9x in cells
T1 construct: endogenous in cells; host or cells: NCI-H929, Z138, MM.1S, A375
Protocol: Example B-1: HA-Ubiqutin-Vinylsulfone (HA-Ub-VS) Cell Labeling
Inhibitition of DUB activity is measured in cells (NCI-H929, Z138, MM.1S, A375) using a hemaglutinin-ubiquitin-vinylsulfone (HA-Ub-VS) labeling assay. Briefly, 1-2×10^6 cells are plated in 12-well plates in 1 ml complete growth media and 250 μl of test compound in 0.5% dimethylsulfoxide (or DMSO control) is added to each well. Plates are incubated at 37° C., 5% CO2 for 2-6 hours before cells are harvested into eppendorf tubes, washed once in PBS and resuspended in 100 μl cold lysis buffer (50 mM Tris pH 8, 150 mM NaCl, 0.5% NP-40, 2 mM phenylmethylsulfonyl fluoride and complete protease inhibitor tablet). Resupended cells are frozen on dry ice, then thawed and incubated on ice for 15 minutes. Tubes are centrifuged for 10 minutes at 14,000 rpm at 4° C. and the cleared supernatants transferred to clean tubes. […] The samples are incubated 15-60 min at 37° C. before the addition of SDS gel loading buffer. Proteins are separated by SDS-PAGE, transferred to nitrocellulose and the blot probed with anti-HA antibody and anti-β-actin antibodies. The HA and β-actin antibodies are detected using secondary antibodies coupled to IRdye 800 or IRdye 680 and visualized and quantitated using the LiCor Odyssey machine.
(§1) The following compounds were tested in the above assays at 5 μM: […]

[2] = tested on: Mcl-1 expression in cells (NCI-H929, Z138, MM.1S, A-375); experiment: Analysis of Mcl-1 expression by Western blotting; conditions: compound tested at 5 μM; Western blot
Protocol: (§2) Example B-2: Analysis of Md-1 Expression and PARP Cleavage
(§3) The ability of test compounds to decrease expression of the tumor promoting protein, Mcl-1, and to induce the inactivation/cleavage of the PARP protein is evaluated in cells (NCI-H929, Z138, MM.1S, A-375) by Western blotting. Cells are plated and treated as described in the HA-Ub-VS cell labeling assay (see above). A portion of the cleared lysate (15-50 μl) is run on an SDS-polyacrylamide gel to separate proteins and then transferred to nitrocellulose. After transfer to nitrocellulose, the proteins are detected by probing the blot with anti-Mcl-1 and anti-PARP antibodies followed by secondary antibodies coupled to IRdye 800 and IRdye 680 and visualization and quantitation using a LiCor Odyssey machine. Activity of the test compound is identified as a significant decrease in Mcl-1 expression relative to the vehicle treated cells and to the appearance of a cleaved fragment of PARP relative to the vehicle-treated cells.
as §1

[3] = tested on: PARP cleavage in cells (NCI-H929, Z138, MM.1S, A-375); experiment: Analysis of PARP cleavage by Western blotting; conditions: compound tested at 5 μM; Western blot
Protocol: as §2, §3, §1

T1 sequence (Q93008 whole entry): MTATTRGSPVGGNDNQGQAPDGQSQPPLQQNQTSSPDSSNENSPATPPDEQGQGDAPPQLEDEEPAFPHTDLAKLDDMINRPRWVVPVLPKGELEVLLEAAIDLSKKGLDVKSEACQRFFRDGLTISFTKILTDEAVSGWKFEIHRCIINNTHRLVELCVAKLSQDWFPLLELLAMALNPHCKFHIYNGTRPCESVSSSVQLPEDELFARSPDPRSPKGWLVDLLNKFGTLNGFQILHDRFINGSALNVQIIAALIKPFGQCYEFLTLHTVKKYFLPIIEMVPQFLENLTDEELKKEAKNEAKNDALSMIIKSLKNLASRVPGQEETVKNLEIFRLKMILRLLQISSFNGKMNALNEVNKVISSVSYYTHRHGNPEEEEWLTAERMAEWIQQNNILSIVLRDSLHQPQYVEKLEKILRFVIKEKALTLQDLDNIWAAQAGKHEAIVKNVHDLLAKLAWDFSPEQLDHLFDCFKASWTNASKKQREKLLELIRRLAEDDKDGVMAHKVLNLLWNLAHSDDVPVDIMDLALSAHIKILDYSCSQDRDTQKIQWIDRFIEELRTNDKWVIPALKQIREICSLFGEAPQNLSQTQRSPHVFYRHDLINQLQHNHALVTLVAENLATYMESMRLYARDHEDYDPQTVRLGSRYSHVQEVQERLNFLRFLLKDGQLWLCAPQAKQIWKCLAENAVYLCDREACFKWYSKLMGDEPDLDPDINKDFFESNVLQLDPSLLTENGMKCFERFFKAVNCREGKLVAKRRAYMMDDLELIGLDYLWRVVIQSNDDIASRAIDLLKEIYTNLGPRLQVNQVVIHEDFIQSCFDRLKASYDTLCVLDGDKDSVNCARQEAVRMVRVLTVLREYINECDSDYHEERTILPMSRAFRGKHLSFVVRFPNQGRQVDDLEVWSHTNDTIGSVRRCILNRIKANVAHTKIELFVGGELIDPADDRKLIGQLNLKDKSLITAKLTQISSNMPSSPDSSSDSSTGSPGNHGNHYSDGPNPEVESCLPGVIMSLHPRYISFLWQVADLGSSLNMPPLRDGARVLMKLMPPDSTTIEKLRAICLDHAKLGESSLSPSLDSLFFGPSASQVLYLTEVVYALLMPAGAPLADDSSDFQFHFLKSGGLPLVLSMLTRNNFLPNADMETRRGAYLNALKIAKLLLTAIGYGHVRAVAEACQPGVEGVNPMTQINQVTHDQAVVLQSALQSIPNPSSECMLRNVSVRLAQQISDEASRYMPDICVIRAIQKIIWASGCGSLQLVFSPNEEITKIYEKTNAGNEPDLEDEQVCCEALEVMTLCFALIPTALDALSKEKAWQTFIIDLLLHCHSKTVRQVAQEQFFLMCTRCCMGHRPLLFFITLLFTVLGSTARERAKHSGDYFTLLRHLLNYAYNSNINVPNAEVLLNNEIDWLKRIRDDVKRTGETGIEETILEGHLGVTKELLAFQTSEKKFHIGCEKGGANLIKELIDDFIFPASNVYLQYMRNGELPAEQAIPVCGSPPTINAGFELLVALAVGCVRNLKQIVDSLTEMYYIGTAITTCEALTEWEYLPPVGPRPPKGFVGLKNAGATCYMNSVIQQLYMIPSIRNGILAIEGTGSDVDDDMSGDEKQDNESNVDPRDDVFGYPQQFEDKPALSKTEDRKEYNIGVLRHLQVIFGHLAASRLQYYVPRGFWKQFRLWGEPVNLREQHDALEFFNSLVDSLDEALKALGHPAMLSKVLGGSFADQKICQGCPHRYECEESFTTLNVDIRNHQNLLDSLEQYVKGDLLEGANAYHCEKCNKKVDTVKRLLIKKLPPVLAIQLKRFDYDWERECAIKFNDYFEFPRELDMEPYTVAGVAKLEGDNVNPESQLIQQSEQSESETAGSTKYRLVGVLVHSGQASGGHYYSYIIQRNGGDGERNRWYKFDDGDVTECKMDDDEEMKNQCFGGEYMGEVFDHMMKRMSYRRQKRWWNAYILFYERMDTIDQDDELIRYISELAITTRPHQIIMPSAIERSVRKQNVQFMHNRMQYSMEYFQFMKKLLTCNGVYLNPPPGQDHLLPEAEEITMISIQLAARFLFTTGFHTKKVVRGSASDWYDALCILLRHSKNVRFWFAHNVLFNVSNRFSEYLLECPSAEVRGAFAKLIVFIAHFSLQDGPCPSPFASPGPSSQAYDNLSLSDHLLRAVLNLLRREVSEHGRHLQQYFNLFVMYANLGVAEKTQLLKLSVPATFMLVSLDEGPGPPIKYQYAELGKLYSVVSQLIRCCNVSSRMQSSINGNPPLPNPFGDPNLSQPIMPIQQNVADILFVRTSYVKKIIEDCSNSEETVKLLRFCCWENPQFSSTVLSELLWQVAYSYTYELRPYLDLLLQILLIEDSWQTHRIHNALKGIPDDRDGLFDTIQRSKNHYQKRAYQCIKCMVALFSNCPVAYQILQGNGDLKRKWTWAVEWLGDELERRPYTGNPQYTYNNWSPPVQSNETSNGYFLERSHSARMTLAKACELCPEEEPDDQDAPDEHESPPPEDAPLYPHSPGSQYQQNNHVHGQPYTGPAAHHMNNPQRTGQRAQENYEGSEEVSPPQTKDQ

inhibition at 5 µM [1]: 50 to 75%
Structure (SMILES): N#C/C(=C\c1ncc(Br)cc1Br)C(=O)NC1(c2ccc(-c3cccnc3)cc2)CCCC1 [Compound 39, (E)-2-cyano-3-(3,5-dibromopyridin-2-yl)-N-(1-(4-(pyridin-3-yl)phenyl)cyclopentyl)acrylamide]
inhibition at 5 µM [2]: ≥ 75% | PARP cleavage % Inhibition [3]: A (A is ≧75% inhibition)

inhibition at 5 µM [1]: < 25%
Structure (SMILES): N#C/C(=C\c1cccc(-c2ccc(CC(=O)O)cc2)n1)C(=O)NC1(c2ccccc2)CCCC1 [Compound 40]
inhibition at 5 µM [2]: < 25% | PARP cleavage % Inhibition [3]: C (C is 25% to 50% inhibition)

inhibition at 5 µM [1]: 50 to 75%
Structure (SMILES): COC(=O)/C=C/c1cccc(/C=C(\C#N)C(=O)NC2(c3ccccc3)CCCC2)n1 [Compound 42, (E)-methyl 3-(6-((E)-2-cyano-3-oxo-3-((1-phenylcyclopentyl)amino)prop-1-en-1-yl)pyridin-2-yl)acrylate]
inhibition at 5 µM [2]: ≥ 75% | PARP cleavage % Inhibition [3]: A (A is ≧75% inhibition)

inhibition at 5 µM [1]: ≥ 75%
Structure (SMILES): N#C/C(=C\c1cccc(C#CCn2cccn2)n1)C(=O)NC1(c2ccccc2)CCCC1 [Compound 43, (E)-3-(6-(3-(1H-pyrazol-1-yl)prop-1-yn-1-yl)pyridin-2-yl)-2-cyano-N-(1-phenylcyclopentyl)acrylamide]
inhibition at 5 µM [2]: ≥ 75% | PARP cleavage % Inhibition [3]: A (A is ≧75% inhibition)

inhibition at 5 µM [1]: 50 to 75%
Structure (SMILES): COC(=O)c1cccc(C2(NC(=O)/C(C#N)=C/c3cccc(Br)n3)CCCC2)c1 [Compound 48, (E)-methyl 3-(1-(3-(6-bromopyridin-2-yl)-2-cyanoacrylamido)cyclopentyl)benzoate]
inhibition at 5 µM [2]: < 25% | PARP cleavage % Inhibition [3]: A (A is ≧75% inhibition)

inhibition at 5 µM [1]: ≥ 75%
Structure (SMILES): N#C/C(=C\c1ncc(Br)cc1Br)C(=O)NC1(c2ccc(C#CCN3CCOCC3)cc2)CCCC1 [Compound 50, (E)-2-cyano-3-(3,5-dibromopyridin-2-yl)-N-(1-(4-(3-morpholinoprop-1-yn-1-yl)phenyl)cyclopentyl)acrylamide]
inhibition at 5 µM [2]: ≥ 75% | PARP cleavage % Inhibition [3]: A (A is ≧75% inhibition)

inhibition at 5 µM [1]: 25 to 50%
Structure (SMILES): N#C/C(=C\c1ncc(Br)cc1Br)C(=O)NC1(c2ccc(-c3ccc(N4CCOCC4)nc3)cc2)CCCC1 [Compound 51, (E)-2-cyano-3-(3,5-dibromopyridin-2-yl)-N-(1-(4-(6-morpholinopyridin-3-yl)phenyl)cyclopentyl)acrylamide]
inhibition at 5 µM [2]: 25 to 50% | PARP cleavage % Inhibition [3]: A (A is ≧75% inhibition)

inhibition at 5 µM [1]: < 25%
Structure (SMILES): CC(C)(C)OC(=O)c1cccc(C2(NC(=O)/C(C#N)=C/c3ncc(Br)cc3Br)CCCC2)c1 [Compound 52, (E)-tert-butyl 3-(1-(2-cyano-3-(3,5-dibromopyridin-2-yl)acrylamido)cyclopentyl)benzoate]
inhibition at 5 µM [2]: < 25% | PARP cleavage % Inhibition [3]: D (D is <25% inhibition)

inhibition at 5 µM [1]: < 25%
Structure (SMILES): CCOc1ncc(C(F)(F)F)cc1-c1ccc(C2(NC(=O)/C(C#N)=C/c3ncc(Br)cc3Br)CCCC2)cc1 [Compound 54, (E)-2-cyano-3-(3,5-dibromopyridin-2-yl)-N-(1-(4-(2-ethoxy-5-(trifluoromethyl)pyridin-3-yl)phenyl)cyclopentyl)acrylamide]
inhibition at 5 µM [2]: < 25% | PARP cleavage % Inhibition [3]: C (C is 25% to 50% inhibition)

inhibition at 5 µM [1]: 25 to 50%
Structure (SMILES): N#C/C(=C\c1cccc(C#CCN2CCOCC2)n1)C(=O)NC1(c2ccccc2)CCCC1 [Compound 55, (E)-2-cyano-3-(6-(3-morpholinoprop-1-yn-1-yl)pyridin-2-yl)-N-(1-phenylcyclopentyl)acrylamide]
inhibition at 5 µM [2]: < 25% | PARP cleavage % Inhibition [3]: A (A is ≧75% inhibition)

The next lines start with the molecule.

Structure (SMILES): COC(=O)c1ccc(C2(NC(=O)/C(C#N)=C/c3cccc(Br)n3)CCCC2)cc1 [Compound 41, (E)-methyl 4-(1-(3-(6-bromopyridin-2-yl)-2-cyanoacrylamido)cyclopentyl)benzoate]
inhibition at 5 µM [1]: 50 to 75% | inhibition at 5 µM [2]: ≥ 75% | PARP cleavage % Inhibition [3]: A (A is ≧75% inhibition)

Structure (SMILES): N#C/C(=C\c1cccc(C#CC2(O)CCCC2)n1)C(=O)NC1(c2ccccc2)CCCC1 [Compound 45]
inhibition at 5 µM [1]: 50 to 75% | inhibition at 5 µM [2]: ≥ 75% | PARP cleavage % Inhibition [3]: A (A is ≧75% inhibition)

Structure (SMILES): N#C/C(=C\c1ncccc1Br)C(=O)NC1(c2ccccc2)CCCC1 [Compound 46, (E)-3-(3-bromopyridin-2-yl)-2-cyano-N-(1-phenylcyclopentyl)acrylamide]
inhibition at 5 µM [1]: 50 to 75% | inhibition at 5 µM [2]: 50 to 75% | PARP cleavage % Inhibition [3]: A (A is ≧75% inhibition)

Structure (SMILES): CCOc1ncc(C(F)(F)F)cc1-c1cccc(/C=C(\C#N)C(=O)NC2(c3ccccc3)CCCC2)n1 [Compound 47, (E)-2-cyano-3-(2′-ethoxy-5′-(trifluoromethyl)-[2,3′-bipyridin]-6-yl)-N-(1-phenylcyclopentyl)acrylamide]
inhibition at 5 µM [1]: 25 to 50% | inhibition at 5 µM [2]: 50 to 75% | PARP cleavage % Inhibition [3]: A (A is ≧75% inhibition)

Structure (SMILES): CC(C)(C)OC(=O)c1cc(-c2cccc(/C=C(\C#N)C(=O)NC3(c4ccccc4)CCCC3)n2)cnc1Cl [Compound 49]
inhibition at 5 µM [1]: ≥ 75% | inhibition at 5 µM [2]: ≥ 75% | PARP cleavage % Inhibition [3]: A (A is ≧75% inhibition)

Structure (SMILES): COc1ncccc1-c1ccc(C2(NC(=O)/C(C#N)=C/c3ncc(Br)cc3Br)CCCC2)cc1 [Compound 53, (E)-2-cyano-3-(3,5-dibromopyridin-2-yl)-N-(1-(4-(2-methoxypyridin-3-yl)phenyl)cyclopentyl)acrylamide]
inhibition at 5 µM [1]: < 25% | inhibition at 5 µM [2]: 50 to 75% | PARP cleavage % Inhibition [3]: A (A is ≧75% inhibition)

Structure (SMILES): CC(C)(C)OC(=O)c1cccc(-c2cccc(/C=C(\C#N)C(=O)NC3(c4ccccc4)CCCC3)n2)c1 [Compound 56, (E)-tert-butyl 3-(6-(2-cyano-3-oxo-3-((1-phenylcyclopentyl)amino)prop-1-en-1-yl)pyridin-2-yl)benzoate]
inhibition at 5 µM [1]: 50 to 75% | inhibition at 5 µM [2]: ≥ 75% | PARP cleavage % Inhibition [3]: A (A is ≧75% inhibition)

Structure (SMILES): N#C/C(=C\c1cccc(-c2ccc(N3CCOCC3)nc2)n1)C(=O)NC1(c2ccccc2)CCCC1 [Compound 57, (E)-2-cyano-3-(6′-morpholino-[2,3′-bipyridin]-6-yl)-N-(1-phenylcyclopentyl)acrylamide]
inhibition at 5 µM [1]: ≥ 75% | inhibition at 5 µM [2]: ≥ 75% | PARP cleavage % Inhibition [3]: A (A is ≧75% inhibition)

Structure (SMILES): N#C/C(=C\c1cccc(Br)n1)C(=O)NC1(c2cccc(Br)c2)CCCC1 [Compound 58, (E)-N-(1-(3-bromophenyl)cyclopentyl)-3-(6-bromopyridin-2-yl)-2-cyanoacrylamide]
inhibition at 5 µM [1]: ≥ 75% | inhibition at 5 µM [2]: ≥ 75% | PARP cleavage % Inhibition [3]: A (A is ≧75% inhibition)

Structure (SMILES): N#C/C(=C\c1ncc(Br)cc1Br)C(=O)NC1(c2ccc(-c3cnc4[nH]ccc4c3)cc2)CCCC1 [Compound 59, (E)-N-(1-(4-(1H-pyrrolo[2,3-b]pyridin-5-yl)phenyl)cyclopentyl)-2-cyano-3-(3,5-dibromopyridin-2-yl)acrylamide]
inhibition at 5 µM [1]: ≥ 75% | inhibition at 5 µM [2]: ≥ 75% | PARP cleavage % Inhibition [3]: A (A is ≧75% inhibition)

Structure (SMILES): CCOC(=O)c1cccc(-c2cccc(/C=C(\C#N)C(=O)NC3(c4ccccc4)CCCC3)n2)c1F [Compound 60]
inhibition at 5 µM [1]: 50 to 75% | inhibition at 5 µM [2]: ≥ 75% | PARP cleavage % Inhibition [3]: A (A is ≧75% inhibition)

Structure (SMILES): N#C/C(=C\c1cccc(-c2cnc3[nH]ccc3c2)n1)C(=O)NC1(c2ccccc2)CCCC1 [Compound 61, (E)-3-(6-(1H-pyrrolo[2,3-b]pyridin-5-yl)pyridin-2-yl)-2-cyano-N-(1-phenylcyclopentyl)acrylamide]
inhibition at 5 µM [1]: < 25% | inhibition at 5 µM [2]: < 25% | PARP cleavage % Inhibition [3]: B (B is 50% to 75% inhibition)

Structure (SMILES): Cn1cc(-c2cccc(/C=C(\C#N)C(=O)NC3(c4ccccc4)CCCC3)n2)cn1 [Compound 62, (E)-2-cyano-3-(6-(1-methyl-1H-pyrazol-4-yl)pyridin-2-yl)-N-(1-phenylcyclopentyl)acrylamide]
inhibition at 5 µM [1]: 50 to 75% | inhibition at 5 µM [2]: ≥ 75% | PARP cleavage % Inhibition [3]: A (A is ≧75% inhibition)

Structure (SMILES): C=C(C)c1ccc(C2(NC(=O)/C(C#N)=C/c3ncc(Br)cc3Br)CCCC2)cc1 [Compound 63, (E)-2-cyano-3-(3,5-dibromopyridin-2-yl)-N-(1-(4-(prop-1-en-2-yl)phenyl)cyclopentyl)acrylamide]
inhibition at 5 µM [1]: ≥ 75% | inhibition at 5 µM [2]: ≥ 75% | PARP cleavage % Inhibition [3]: A (A is ≧75% inhibition)
